Measured values from patent publication US20230234936A1, “COMPOUND FOR TARGETING AND DEGRADING PROTEIN, AND PREPARATION METHOD THEREFOR AND USE THEREOF” (SHANGHAI LEADINGTAC PHARMACEUTICAL CO., LTD., priority 2020, published 2023).

How the values were obtained:
[1] = target: T1, IRAK4 protein in THP-1 cells (Homo sapiens, UniProt Q9NWZ3); assay: Degradation of IRAK4 in THP-1 cells (Western blot); format: cell-based; settings: 24 hours, compound 1-3000 nM
T1 construct: endogenous in cells; host or cells: THP-1
T1 sequence (Q9NWZ3 1-460): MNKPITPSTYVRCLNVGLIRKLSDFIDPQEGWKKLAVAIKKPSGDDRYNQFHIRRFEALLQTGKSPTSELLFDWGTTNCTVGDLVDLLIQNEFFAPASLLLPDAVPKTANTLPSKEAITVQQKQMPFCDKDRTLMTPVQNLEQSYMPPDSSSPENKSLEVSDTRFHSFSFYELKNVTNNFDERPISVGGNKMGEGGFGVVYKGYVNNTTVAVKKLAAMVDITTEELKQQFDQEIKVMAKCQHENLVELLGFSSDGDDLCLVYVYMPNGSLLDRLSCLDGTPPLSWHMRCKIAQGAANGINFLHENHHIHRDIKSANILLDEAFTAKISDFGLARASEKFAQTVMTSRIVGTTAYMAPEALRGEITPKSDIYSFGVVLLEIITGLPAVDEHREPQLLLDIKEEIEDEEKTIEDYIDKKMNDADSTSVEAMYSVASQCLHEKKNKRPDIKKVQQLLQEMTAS
Description: Each well of the 24-well cell culture plate was inoculated with 0.95 mL THP-1 cells (stem cell bank of Chinese academy of sciences) with a cell density of 5×10^5 cells/well. The cell plate was placed in a 5% carbon dioxide incubator and cultured overnight at 37° C., then 50 μL compound in dimethyl sulfoxide was added. The final concentration of the compound was in the range of 1-3000 nM. After continuous cultivation for 24 hours, the cells were collected into a 1.5 mL centrifuge tube, centrifuged at 1000 rpm and 4° C. for 5 minutes. Cell precipitation was cleaned twice with 1-DPBS, resuspended cells were lysed with 200 μL lysate (cell lysate was Western and IP cell lysate (Beyotime), supplemented with 1 mM mixture of phenylmethylsulfonyl fluoride and protease inhibitor (Beyotime)), left on ice for 30 minutes, then centrifuged at 14000 g at 4° C. for 10 minutes, and the supernatant was taken to detect IRAK4 protein level by Western blot.
Western blot method: The total protein concentration in the supernatant of cell lysis was determined by BCA protein quantitative kit (Tiangen). According to the concentration of total protein detected by BCA, the supernatant was adjusted to 0.2 μg/μL with PBS and 5× SDS-PAGE protein loading buffer (Beyotime), bathed in water at 100° C. for 10 minutes, then placed in ice bath for 5 minutes, centrifuged at 14000 g and 4° C. for 5 minutes, and then collected as WB loading sample. Prefabricated glue (KeyGEN) was used for protein electrophoresis with a loading amount of 10 μL (total protein 2 μg). After Tris-MOPS-SDS electrophoresis solution (Adamas), 120V constant pressure electrophoresis was performed. After electrophoresis, the protein on the adhesive strip was transferred to PVDF membrane with a constant current of […] for 50 minutes. After the membrane was transferred, the membrane was placed in 1×QuickBlock blocking buffer (Beyotime) and incubated for 30 minutes at room temperature. After blocking, PVDF membranes were incubated with IRAK4 primary antibody (Abcam) overnight at 4°, the membranes were washed with TBST buffer (2.4 g Tris, 8.8 g NaCl, 1.5 mL Tween 20, pH adjusted to 7.4, constant volume to 1 L) for 30 minutes, incubated with secondary antibody (Abcam) for 2 hours at room temperature, finally incubated with Clarity Western ECL Substrate(BIO-RAD) for 5 minutes for luminescence development, chemiluminescence imaging system (Clinx, chemiScope 6200 Touch) for development and protein mapping photography. The protein map was analyzed by Clinx chemiluminescence analysis software for grayscale values. Using the formula: grayscale correction value=(target protein grayscale value/corresponding internal reference grayscale value)×10^3, the grayscale correction value of each sample was calculated. The degradation rate was calculated by comparing with the grayscale correction value of the control group. Furthermore, DC50 and Dmax values of the compound were obtained by the nonlinear curve fitting with the logarithmic concentration-inhibition rate by GraphPad Prism 7.

IRAK4 kinase = target: T2, IRAK4 kinase (Homo sapiens, UniProt Q9NWZ3); assay: IRAK4 kinase activity test (KinEASE-STK S1 HTRF kit); format: biochemical; settings: 2.5 nM kinase, 1 μM biotinylated polypeptide substrate, 7 μM ATP, 37° C. 120 min
T2 sequence (Q9NWZ3 1-460): T1 sequence (Q9NWZ3 1-460)
Description: KinEASE-STK S1 serine/threonine kinase kit (Cisbio) was used to detect the inhibitory effect of the compound on IRAK4 kinase activity. The specific method was: the compound was dissolved in dimethyl sulfoxide, and then it was diluted with the buffer solution of the kit by equal gradient to make the final concentration range of the tested compound in the reaction system 10000 nM-0.038 nM, then 2.5 nM kinase, 1 μM biotinylated polypeptide substrate and 7 μM adenosine triphosphate (ATP) were added in sequence and incubated at 37° C. for 120 min. Subsequently, anti-phosphorylated serine/threonine antibody coupled with europium element compound and modified XL665 streptavidin were added to the reaction system to terminate the reaction. After incubating at room temperature for 1 h, the fluorescence intensity of each well at the emission wavelength of 620 nm and 665 nm and the excitation wavelength of 337 nm was determined in HTRF mode on the microplate reader EnVision(PerkinElmer), the ratio value was calculated using the formula Ratio=(665 nm/620 nm)×10^4. By comparing with the fluorescence intensity ratio of the control group, the inhibition rate of the compound at each concentration was calculated, and then the IC50 value of the compound was obtained by fitting the nonlinear curve with the logarithmic concentration-inhibition rate by GraphPad Prism 7.

| DC50 [1] [nM] | Dmax [1] [%] | IC50 (IRAK4 kinase) [nM] | Compound |
| --- | --- | --- | --- |
| 7.4 | 99.1 | 2.9 | COc1cc2nn(C3CCN(CCCN4CCC5(CC4)CCN(C(=O)c4ccc(OC)c(N6CCC(=O)NC6=O)c4)CC5)CC3)cc2cc1NC(=O)c1cccc(C(F)(F)F)n1 [Example 2, N-(2-(1-(3-(9-(3-(2,4-dioxotetrahydropyrimi-din-1 (2H)-yl)-4-methoxyben-zoyl)-3,9-diazaspiro [5.5]undec-3-yl)propyl)piperidin-4-yl)-6-methoxy-2H-indazol-5-yl)-6-(tri-fluoromethyl)-2-pyridine carboxamide] |
| 23.1 | 90.5 | 2.7 | COc1cc2nn(C3CCN(CCCCN4CCC5(CC4)CCN(C(=O)c4ccc(OC)c(N6CCC(=O)NC6=O)c4)CC5)CC3)cc2cc1NC(=O)c1cccc(C(F)(F)F)n1 [Example 3] |
| 24 | 91.7 | 7.6 | COc1cc2nn(C3CCN(CCC4CCN(C(=O)c5ccc(OC)c(N6CCC(=O)NC6=O)c5)CC4)CC3)cc2cc1NC(=O)c1cccc(C(F)(F)F)n1 [Example 6, N-(2-(1-(2-(1-(3-(2,4-dioxotetrahydropyrim-idin-1 (2H)-yl)-4-methoxyben-zoyl)piperidin-4-yl)ethyl)piperidin-4-yl)-6-me-thoxy-2H-indazol-5-yl)-6-(trifluoromethyl) pyridinecarboxamide] |
| 9.4 | 95.5 | 5.9 | COc1ccc(C(=O)N2CCC(CCN3CCC(n4cc5cc(NC(=O)c6cccc(C(F)(F)F)n6)c(C(C)(C)O)cc5n4)CC3)CC2)cc1N1CCC(=O)NC1=O [Example 7, N-(2-(1-(2-(1-(3-(2,4-dioxotetrahydropyrimidin-1 (2H)-yl)-4-methoxybenzoyl)piperidin-4-yl)ethyl)piperidin-4-yl)-6-(2-hydroxyprop-2-yl)-2H-indazol-5-yl)-6-(trifluoromethyl) pyridinecarboxamide] |
| 16.4 | 94.3 | 18 | COc1cc2nn(C3CCN(CCCCCN(C)C(=O)c4ccc(OC)c(N5CCC(=O)NC5=O)c4)CC3)cc2cc1NC(=O)c1cccc(C(F)(F)F)n1 [Example 9, N-(2-(1-(5-(3-(2,4-dioxotetrahydropyrimidin-1 (2H)-yl)-4-methoxy-N-methylbenzamido)pentyl)piperidin-4-yl)-6-methoxy-2H-indazol-5-yl)-6-(trifluoromethyl) pyridinecarboxamide] |
| 2.3 | 100 | 6.5 | COc1ccc(C(=O)N2CCC3(CCN(CCN4CCC(n5cc6cc(NC(=O)c7cccc(C(F)(F)F)n7)c(C(C)(C)O)cc6n5)CC4)CC3)CC2)cc1N1CCC(=O)NC1=O [Example 10, N-(2-(1-(2-(9-(3-(2,4-dioxotetrahydropyrimidin-1 (2H)-yl)-4-methoxybenzoyl)-3,9-diazaspiro[5.5]undec-3-yl)ethyl)piperidin-4-yl)-6-(2-hydroxyprop-2-yl)-2H-indazol-5-yl)-6-(trifluoromethyl) pyridinecarboxamide] |
| 27.7 | 99.6 | 6 | COc1ccc(C(=O)N2CCC3(CCN(CCCN4CCC(n5cc6cc(NC(=O)c7cccc(C(F)(F)F)n7)c(C(C)(C)O)cc6n5)CC4)CC3)CC2)cc1N1CCC(=O)NC1=O [Example 11] |
| 1.4 | 96.9 | 7.9 | COc1ccc(C(=O)N2CCC3(CC2)CN(CCN2CCC(n4cc5cc(NC(=O)c6cccc(C(F)(F)F)n6)c(C(C)(C)O)cc5n4)CC2)C3)cc1N1CCC(=O)NC1=O [Example 12, N-(2-(1-(2-(7-(3-(2,4-dioxotetrahydropyrimidin-1 (2H)-yl)-4-methoxybenzoyl)-2,7-diazaspiro [3.5]non-2-yl)ethyl)piperidin-4-yl)-6-(2-hydroxyprop-2-yl)-2H-indazol-5-yl)-6-(trifluoro-methyl) pyridinecarboxamide] |
| 7.1 | 99.4 | 9.2 | COc1cc2nn(C3CCN(CCN4CCC5(CC4)CCN(C(=O)c4ccc(Cl)c(N6CCC(=O)NC6=O)c4)CC5)CC3)cc2cc1NC(=O)c1cccc(C(F)(F)F)n1 [Example 16, N-(2-(1-(2-(9-(4-chloro-3-(2,4-dioxotetrahydro-pyrimidin-1 (2H)-yl)benzoyl)-3,9-diazaspiro[5.5]undec-3-yl)ethyl)piperidin-4-yl)-6-methoxy-2H-in-dazol-5-yl)-6-(tri-fluoromethyl) pyridinecarbox-amide] |
| 5.3 | 96.9 | 7.9 | CC(C)(O)c1cc2nn(C3CCN(CCN4CCC5(CC4)CCN(C(=O)c4ccc(Cl)c(N6CCC(=O)NC6=O)c4)CC5)CC3)cc2cc1NC(=O)c1cccc(C(F)(F)F)n1 [Example 17, N-(2-(1-(2-(9-(4-chloro-3-(2,4-dioxotetrahydro-pyrimidin-1 (2H)-yl)benzoyl)-3,9-diazaspiro[5.5]undec-3-yl)ethyl)piperidin-4-yl)-6-(2-hydroxyprop-2-yl)-2H-indazol-5-yl)-6-(trifluoro-methyl) pyridinecarbox-amide] |
| 7.1 | 99.4 | 9.6 | COc1cc2nn(C3CCN(CCCC4CCN(C(=O)c5ccc(OC)c(N6CCC(=O)NC6=O)c5)CC4)CC3)cc2cc1NC(=O)c1cccc(C(F)(F)F)n1 [Example 18, N-(2-(1-(3-(1-(3-(2,4-dioxotetrahydro-pyrimidin-1 (2H)-yl)-4-me-thoxybenzoyl)piperidin-4-yl)propyl)piperidin-4-yl)-6-methoxy-2H-in-dazol-5-yl)-6-(trifluorometh-yl) pyridinecarbox-amide] |
| 13.4 | 92.8 | 16.9 | COc1cc2nn(C3CCN(CCCN4CCN(C(=O)c5ccc(OC)c(N6CCC(=O)NC6=O)c5)CC4)CC3)cc2cc1NC(=O)c1cccc(C(F)(F)F)n1 [Example 19, N-(2-(1-(3-(4-(3-(2,4-dioxotetrahydro-pyrimidin-1 (2H)-yl)-4-me-thoxybenzoyl)piperazin-1-yl)propyl)piperidin-4-yl)-6-methoxy-2H-in-dazol-5-yl)-6-(trifluorometh-yl) pyridinecarbox-amide] |
| 12.2 | 93.7 | 9.5 | COc1cc2nn(C3CCN(CCOC4CCN(C(=O)c5ccc(OC)c(N6CCC(=O)NC6=O)c5)CC4)CC3)cc2cc1NC(=O)c1cccc(C(F)(F)F)n1 [Example 20] |
